What was measured:
[1] = system: TNF-α; assay: TNF-α tissue expression in cartilage and synovium co-cultures (histochemistry); format: cell-based, human; conditions: RA or OA co-cultures, 1% type I polymerized collagen, 7 days
Experimental: (§1) Cartilage and synovium co-cultures were performed from 9 patients with RA and 8 patients with OA who underwent hip or knee replacement (Table 1). Joint tissue was cultured with (a) RPMI (control), (b) 1% type I polymerized collagen, for 7 days. The supernatants and tissues of days 1 and 7 were […] collected. In the culture supernatants the concentration of IL-1β, IL-8, IL-10, IL-12, TNF-α and IFN-γ was quantified by ELISA and the results were normalized with total protein concentration. The expression of IL-1β and TNF-α was evaluated using histochemistry.
FIG. 2. Effect of type I polymerized collagen on TNF-α expression. (A) Cells immunoreactive to TNF-α in the synovial tissue of the co-cultures. (B) Immunoreactive TNF-α+ cells in cartilage from co-cultures. Rheumatoid arthritis (RA): left panel. Osteoarthritis (OA): right panel. Basal: tissue in basal conditions. […] Each culture was performed in triplicate for each condition, of which at least two sections of each of the tissues were analyzed. The results are expressed as the mean±standard error (SEM) of the percentage of immunoreactive cells in 9 co-cultures of patients with RA and 8 with OA. *p≤0.002.

[2] = system: IL-1β; assay: IL-1β in co-culture supernatants (ELISA); format: cell-based, human; conditions: RA or OA co-cultures, day 7 of culture
Experimental: as §1
(§2) FIG. 3. Effect of type I polymerized collagen on IL-1β expression in supernatants of cartilage and synovium co-cultures from patients with rheumatoid arthritis (RA) or osteoarthritis (OA). The data represent the mean±SD of 9 co-cultures of cartilage and synovial tissue from patients with RA and of 8 co-cultures of patients with OA. Each culture was performed in triplicate for each condition. The results were normalized with the total protein concentration of the supernatant, determined by the Folin-Lowry micromethod. AR: left panel. OA: panel on the right. Basal: tissue in basal conditions.

[3] = system: TNF-α; assay: TNF-α in co-culture supernatants (ELISA); format: cell-based, human; conditions: RA or OA co-cultures, day 7 of culture
Experimental: as §1
as §2, with “4.” for “3.”, “TNF-α” for “IL-1β”, “synovial tissue” for “synovium”, “synovium” for “synovial tissue”, “Folin-Löwry” for “Folin-Lowry”, “conditions. […] No detectable levels of IL-12 and IFN-γ were determined in the cultures.” for “conditions.”

[4] = system: IL-8; assay: IL-8 in co-culture supernatants (ELISA); format: cell-based, human; conditions: tissue co-cultures from RA patients
Experimental: as §1
as §2, with “5.” for “3.”, “IL-8” for “IL-1β”, “synovial tissue” for “synovium”, “synovium” for “synovial tissue”, “Folin-Löwry” for “Folin-Lowry”

[5] = system: Treg (CD4+/FOXP3+) cells; assay: FACS of spleen Foxp3+ regulatory T cells in CIA models; format: in vivo, mice
Experimental: (§3) Early Arthritis Model. Fifty mice with the same characteristics were immunized at the base of the tail with 100 μg of chicken type II collagen emulsified in complete Freund's adjuvant. The boost was applied on day 21 at the base of the tail with 100 μg of type II collagen emulsified with Freund's incomplete adjuvant. On the same boosting day, the treatments (a-d) were applied every week for six weeks. Three animals were euthanized in the sixth week and three in the thirteenth week. The spleen, lymph nodes, joint tissue, liver, lungs, kidneys and heart were obtained in order to assess the inflammatory infiltrate, the predominant cell populations and the expression of pro- and anti-inflammatory cytokines.
(§4) Established Arthritis Model. Arthritis was induced as in the previous model in 50 mice and the treatments were applied intramuscularly, after 2 weeks of the boost, every week for 6 weeks. Three animals were euthanized in the eighth week and three in the fifteenth week. The spleen, lymph nodes, joint tissue, liver, lungs, kidneys and heart were obtained in order to assess the inflammatory infiltrate, the predominant cell populations and the expression of pro- and anti-inflammatory cytokines.
Cytometric evaluation. Using FACS, the percentage of populations of Th1 ([…]), Th2 (CD4^+/IL-4^+), Treg (CD4^+/FOXP3^+) Th17 (CD4^+/IL-17^+) and dendritic (CD4−/CD11c^+) cells in spleen cells.
FIG. 10. Effect of type I polymerized collagen in the early (preventive) and long-standing (late or palliative) arthritis model on the percentage of spleen CD4+ T cell subpopulations. (A) Spleen cells obtained ex vivo in the early arthritis model during the first sacrifice. (B) Spleen cells obtained ex vivo in the early arthritis model during the second sacrifice. (C) Spleen cells obtained ex vivo in the long-standing arthritis model during the first sacrifice. […] The intracellular production of IL-17A, IL-4, IFN-γ and Foxp3 by CD4+ T cells was detected by flow cytometry. The results are representative of 6 mice analyzed in each group. […]

[6] = system: dendritic (CD4−/CD11c+) cells; assay: FACS of spleen CD11c+ dendritic cells in CIA models; format: in vivo, mice; conditions: CIA model
Experimental: as §3, §4
Cytometric evaluation. […]
FIG. 12. […] The expression of CD11c was detected by flow cytometry. The results are representative of 6 mice analyzed in each group. […]

[7] = Adverse events in the mouse study; format: in vivo, mice; conditions: after injection, throughout the study
Experimental: There was no evidence of adverse events after injection of placebo or the different treatments throughout the study. The only adverse event observed was pain lasting less than 15 minutes at the injection site.

collagen-polyvinylpyrrolidone [type I polymerized collagen]
tissue expression of TNF-α vs. controls in synovial tissue [1]: decreased
expression of IL-1β vs. the controls in the supernatants [2]: decreased
expression of TNF-α vs. the controls in the supernatants [3]: decreased
concentration of IL-8 in the supernatants of the co-cultures [4]: greatest decrease
positive regulation of Tregs cells ([5]; CIA model, fold): 5.0-6.0 ×
Foxp3+ regulatory T cells ([5]; early and long-standing arthritis, first and second sacrifice, vs placebo): increase
CD11c+ population (antigenic presentation) [6]: decrease
adverse events [7]: no adverse effects
